In PubChem BioAssay (NCI):
Where “and” joins values, the source holds several entries; their conditions need not be identical. Equal entries are not always repeated.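 48-hour exposure; five concentrations; linearly interpolated endpoints. GI50 = concentration required for 50% inhibition of growth. TGI marks complete inhibition of growth.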

What was measured:
Assay in all cases: inhibition of tumour cell growth, NCI panel, 48 h
[1] = system: 786-0 renal
[2] = system: A498 renal
[3] = system: A549 NSCLC
[4] = system: ACHN renal
[5] = system: BT-549 breast
[6] = system: CAKI-1 renal
[7] = system: CCRF-CEM leukemia
[8] = system: COLO 205 colon
[9] = system: DLD-1 colon
[10] = system: DMS 114 small cell lung
[11] = system: DMS 273 small cell lung
[12] = system: DU-145 prostate
[13] = system: EKVX NSCLC
[14] = system: HCC-2998 colon
[15] = system: HCT-116 colon
[16] = system: HCT-15 colon
[17] = system: HL-60(TB) leukemia
[18] = system: HOP-18 NSCLC
[19] = system: HOP-62 NSCLC
[20] = system: HOP-92 NSCLC
[21] = system: HS 578T breast
[22] = system: HT29 colon
[23] = system: IGROV1 ovarian
[24] = system: K-562 leukemia
[25] = system: KM12 colon
[26] = system: KM20L2 colon
[27] = system: LOX IMVI melanoma
[28] = system: LXFL 529 NSCLC
[29] = system: M14 melanoma
[30] = system: M19-MEL melanoma
[31] = system: MALME-3M melanoma
[32] = system: MCF7 breast
[33] = system: MDA-MB-231 breast
[34] = system: MDA-MB-435
[35] = system: MDA-N
[36] = system: MOLT-4 leukemia
[37] = system: NCI-H226 lung
[38] = system: NCI-H23 lung
[39] = system: NCI-H460 lung
[40] = system: NCI-H522 lung
[41] = system: NCI/ADR-RES ovarian
[42] = system: OVCAR-3 ovarian
[43] = system: OVCAR-4 ovarian
[44] = system: OVCAR-5 ovarian
[45] = system: OVCAR-8 ovarian
[46] = system: PC-3 prostate
[47] = system: RPMI-8226 leukemia
[48] = system: RXF 393 renal
[49] = system: SF-268 CNS
[50] = system: SF-295 CNS
[51] = system: SF-539 CNS
[52] = system: SK-MEL-2 melanoma
[53] = system: SK-MEL-28 melanoma
[54] = system: SK-MEL-5 melanoma
[55] = system: SK-OV-3 ovarian
[56] = system: SN12C renal
[57] = system: SNB-19 CNS
[58] = system: SNB-75 CNS
[59] = system: SNB-78 CNS
[60] = system: SR leukemia
[61] = system: SW-620 colon
[62] = system: T-47D breast
[63] = system: TK-10 renal
[64] = system: U251 CNS
[65] = system: UACC-257 melanoma
[66] = system: UACC-62 melanoma
[67] = system: UO-31 renal
[68] = system: XF 498 CNS

Structure (SMILES): CN(C)CCCCN1CCc2c(n(C)c3ccccc23)C1=O
- TGI [1]: > 79.7 µM and 49.4 µM
- GI50 [2]: > 59 µM and 19.9 µM
- TGI [2]: > 85.1 µM and 49 µM
- TGI [3]: > 93.5 µM
- TGI [4]: > 100 µM
- TGI [5]: > 61.5 µM and 95.3 µM
- TGI [6]: > 73.4 µM and 65.3 µM
- TGI [7]: > 100 µM
- TGI [8]: 61.7 µM and 33 µM
- TGI [9]: > 100 µM
- TGI [10]: > 100 µM
- TGI [11]: > 100 µM
- TGI [12]: > 100 µM
- TGI [13]: 85.9 µM and > 100 µM
- GI50 [14]: 39.7 µM and 15.9 µM
- TGI [14]: 64.3 µM and 30.3 µM
- TGI [15]: 75.6 µM and 45.1 µM
- TGI [16]: 54.9 µM and 58.3 µM
- TGI [17]: > 100 µM
- TGI [18]: > 100 µM
- TGI [19]: > 80.8 µM and 63.7 µM
- TGI [20]: 81.2 µM and > 90.7 µM
- TGI [21]: > 89.4 µM
- TGI [22]: 63.4 µM and 37.9 µM
- TGI [23]: > 100 µM
- TGI [24]: 51.9 µM and > 59.4 µM
- TGI [25]: > 92.7 µM
- TGI [26]: > 72.9 µM
- TGI [27]: > 72.9 µM and 42.8 µM
- TGI [28]: 35.1 µM
- TGI [29]: 36.8 µM and 34 µM
- TGI [30]: 69.6 µM
- TGI [31]: 43.6 µM and 36.3 µM
- TGI [32]: > 59.9 µM and 64.7 µM
- TGI [33]: > 63.2 µM and 61.9 µM
- TGI [34]: 33.9 µM and 35 µM
- TGI [35]: 18.3 µM and 34.2 µM
- TGI [36]: > 87.6 µM
- TGI [37]: > 80.5 µM
- TGI [38]: > 100 µM
- GI50 [39]: 54.6 µM and 24.2 µM
- TGI [39]: > 87.1 µM and 49.8 µM
- TGI [40]: > 82 µM
- TGI [41]: > 100 µM
- TGI [42]: > 100 µM
- TGI [43]: > 100 µM
- GI50 [44]: 54.1 µM and 24.2 µM
- TGI [44]: > 78.6 µM and 67.3 µM
- TGI [45]: > 100 µM
- GI50 [46]: 33 µM and > 68.7 µM
- TGI [46]: > 100 µM
- GI50 [47]: 61.7 µM and 29.3 µM
- TGI [47]: 93.2 µM and 64.7 µM
- TGI [48]: 84.7 µM and > 90.5 µM
- TGI [49]: > 76.3 µM and 57.6 µM
- TGI [50]: 71.9 µM and 49.6 µM
- GI50 [51]: 50.5 µM and 21.7 µM
- TGI [51]: 68.9 µM and 44 µM
- TGI [52]: 50.2 µM and 35.9 µM
- TGI [53]: 39.7 µM and 31.4 µM
- TGI [54]: 42.8 µM and 31.9 µM
- TGI [55]: > 95 µM
- TGI [56]: > 90.1 µM and 98 µM
- TGI [57]: > 100 µM
- TGI [58]: 71.3 µM and 60.8 µM
- TGI [59]: > 100 µM
- GI50 [60]: 53.3 µM and 12.7 µM
- TGI [60]: > 100 µM and 35.9 µM
- TGI [61]: > 81.6 µM and 63.9 µM
- TGI [62]: > 51.5 µM and 59.9 µM
- GI50 [63]: > 100 µM and 38.8 µM
- TGI [63]: > 100 µM
- GI50 [64]: 72.4 µM and 34.1 µM
- TGI [64]: 99.5 µM and > 60.1 µM
- TGI [65]: 28.7 µM and 31.4 µM
- TGI [66]: 54.3 µM and 31.8 µM
- TGI [67]: > 76.3 µM and 46.7 µM
- TGI [68]: 43.6 µM
